Each compound was assayed against HCV NS5A replicon GT-1a (assay: HCV NS5A replicon anti-viral activity (EC50), dual-reporter Renilla luciferase, GT-1a). Conditions: GT-1a replicon; read-out: Inhibitory activity against various HCV-NS5A subtypes(EC50, GT-1a to GT-6a) GT-1a.
Format: cell-based
Source text: The autonomous replication level of HCV in liver cells in vitro is very low, and the only animal that can be infected by HCV is chimpanzee, therefore there is no appropriate animal model currently available for preclinical pharmacodynamic study. Some researchers have transplanted human liver tissue infected with HCV in vitro into immune deficient mice to establish an in vivo mice model, but these mice are hard to raise and the model is unstable and short of normal immunologic reaction. Moreover, the model has significant difference with the pathogenic process of hepatitis C, therefore, it has not been used for animal model to assess the action of anti-HCV medicine yet. The progress of the development of anti-viral drugs for the treatment of HCV infection had been very slow because the pathogenic mechanism and life cycle of HCV were unclear before 1999 due to the lack of cell culture system for effective multiplication of HCV. But researchers managed to achieve a breakthrough in 1999 after numerous attempts. An effective cell culture model-replicon system in which HCV is capable of autonomous replication in transfected human hepatic carcinoma cell line Huh-7 had been established in that year on the basis of subgenomic HCV RNA built with genetic engineering.
The above-mentioned cell culture model-replicon system which has been widely accepted in the industry is used in this invention for ex vivo experiments and subsequent assessment of drugs based on the experiment results.
The therapeutic effect of the compounds of this invention on HCV infection can be preliminarily assessed through the following preclinical in vitro inhibitory action test and can be further confirmed in clinical trials. Other methods used in the invention are also quite familiar to professionals in this field with ordinary technical knowledge. Method for testing the anti-viral activity(EC50) in HCV NS5A replicon system: • The viral replication level in infected cells was determined by testing Renilla luciferase with the newly established dual-reporter gene replicon system. There was a good linear relation between the expression level of the reporter gene and the HCV RNA replication level and viral protein expression level. The anti-viral activity was determined for 3 replicates in 3 replicate cells at five(5) 1:2 diluted concentration gradients, with 1 to 2 positive controls. The EC50 of the compounds was calculated in the end.
The compounds of the invention, or their stereoisomers, tautomers, esterified or amidated prodrugs, or pharmaceutically acceptable salts and mixtures have been subjected to test to determined their therapeutic effects in the treatment of HCV infection. […] Moreover, the results of 6a-6ep(Ia), 6fa-6gq(Ib) and reference compounds Ref-1(BMS-790052), Ref-2(GS5885), Ref-3 in HCV-NS5 inhibition test reveal that the cyclopentanyl/hexamethyleneamino radical containing linear polypeptide compounds 6a-6ep, 6fa-6gq and reference compounds Ref-1, Ref-2, Ref-3 have good HCV inhibitory results. […] The replicons GT-1a, GT-lb, GT-2a, GT-3a, GT-4a, GT-5a and GT-6a used for the test are routine replicons commercially available in this field. Table 1: HCV NS5A replicon inhibitory activity test results of compounds (6a-6gq) of the invention

| SMILES | EC50 |
| --- | --- |
| COC(=O)N[C@H](C(=O)N1CCC[C@H]1c1nc2cc(-c3csc4c(-c5ccc(-c6c[nH]c([C@@H]7CCCN7C(=O)[C@H](NC(=O)OC)c7ccccc7)n6)cc5)csc34)ccc2[nH]1)C(C)C [Ref-4, IDX-719, reference compound] | 0.022 nM |

Same assay, conditions: GT-1a replicon; read-out: NS5A Inhibitory Activity (EC50 of GT-1a subtype inhibition)

| SMILES | EC50 |
| --- | --- |
| COC(=O)N[C@H](C(=O)N1CCC[C@H]1c1nc2cc(-c3csc4c(-c5ccc(-c6c[nH]c([C@@H]7CCCN7C(=O)[C@H](NC(=O)OC)c7ccccc7)n6)cc5)csc34)ccc2[nH]1)C(C)C [Ref-4, IDX-719, reference compound] | 0.001 to 0.999 nM |

Same assay, conditions: Hepatitis C virus, GT1A; GT-1a replicon; read-out: NS5A Inhibitory Activity (EC50 of GT-1a subtype inhibition)

| SMILES | EC50 |
| --- | --- |
| COC(=O)N[C@H](C(=O)N1CC=C[C@H]1c1ncc(-c2ccc3c(c2)OC(c2ccccc2)n2c-3cc3cc(-c4cnc([C@@H]5CCCN5C(=O)[C@@H](NC(=O)OC)C(C)C)[nH]4)ccc32)[nH]1)C(C)C (stereo partly shown) [6ej] | 0.001 to 0.999 nM |
| COC(=O)N[C@H](C(=O)N1CC=C[C@H]1c1ncc(-c2ccc(-c3ccc(-c4cnc([C@@H]5CN(C(=O)OC(C)C)CN5C(=O)[C@@H](NC(=O)OC)C(C)C)[nH]4)cc3)cc2)[nH]1)C(C)C [6dc] | 0.001 to 0.999 nM |
| CNC(=O)N[C@@H](C(=O)N1CCC[C@H]1c1ncc(-c2ccc(-c3ccc(-c4cnc([C@@H]5C=CCN5C(=O)[C@@H](NC(=O)OC)C(C)C)[nH]4)cc3)cc2)[nH]1)c1ccccc1 [6dg] | 0.001 to 0.999 nM |
| COC(=O)N[C@H](C(=O)N1CCC[C@H]1c1ncc(-c2ccc(-c3ccc(-c4cnc([C@@H]5CNCN5C(=O)[C@@H](NC(=O)OC)C(C)C)[nH]4)cc3)cc2)[nH]1)C(C)C [6cu] | 0.001 to 0.999 nM |
| COC(=O)N[C@H](C(=O)N1CCC[C@H]1c1nc2ccc(-c3csc4c(-c5ccc(-c6cnc([C@@H]7C=CCN7C(=O)[C@H](NC(=O)OC)c7ccccc7)[nH]6)c(F)c5)csc34)cc2[nH]1)C(C)C [6fu] | 0.001 to 0.999 nM |
| CN(C)C(=O)NC(C(=O)N1CC=C[C@H]1c1ncc(-c2ccc(-c3ccc(-c4cnc([C@@H]5CCCN5C(=O)C(NC(=O)N(C)C)c5ccccc5)[nH]4)cc3)cc2)[nH]1)c1ccccc1 (stereo partly shown) [6ce] | 0.001 to 0.999 nM |
| COC(=O)N[C@H](C(=O)N1CCC[C@H]1c1nc(-c2ccc(-c3ccc(-c4cnc([C@@H]5C[C@@H](OC(=O)N6Cc7ccc8c(c7C6)OCO8)CN5C(=O)[C@@H](NC(=O)OC)C(C)C)[nH]4)cc3)cc2)c[nH]1)C(C)C [6a] | 0.001 to 0.999 nM |
| COC(=O)N[C@H](C(=O)N1CC=C[C@H]1c1nc2ccc(-c3csc4c(-c5cnc([C@@H]6CCCN6C(=O)[C@@H](NC(=O)OC)C(C)C)[nH]5)csc34)cc2[nH]1)C(C)C [6gm] | 0.001 to 0.999 nM |
| COC(=O)NC(C(=O)N1CC=C[C@H]1c1ncc(-c2ccc(-c3ccc(-c4cnc([C@@H]5CCCN5C(=O)C(NC(=O)OC)c5ccccc5)[nH]4)cc3)cc2)[nH]1)c1ccccc1 (stereo partly shown) [6bz] | 0.001 to 0.999 nM |
| COC(=O)N[C@H](C(=O)N1CC=C[C@H]1c1nc(-c2ccc(-c3ccc(-c4c[nH]c([C@@H]5COCCN5C(=O)[C@@H](NC(=O)OC)C(C)C)n4)cc3)cc2)c[nH]1)C(C)C [6bm] | 0.001 to 0.999 nM |
| COC(=O)N[C@@H](C(=O)N1CC=C[C@H]1c1ncc(-c2ccc(-c3cc4sc(-c5cnc([C@@H]6CCCN6C(=O)[C@H](NC(=O)OC)c6ccccc6)[nH]5)cc4o3)cc2)[nH]1)c1ccccc1 [6fr] | 0.001 to 0.999 nM |
| COC(=O)NC(C(=O)N1CC=C[C@H]1c1ncc(-c2ccc(-c3ccc(-c4cnc([C@@H]5CCCN5C(=O)[C@@H](NC(=O)OC)C(C)C)[nH]4)cc3)cc2)[nH]1)c1ccccc1 (stereo partly shown) [6bx] | 0.001 to 0.999 nM |
| CC(C)(C)OC(=O)N[C@H](C(=O)N1CC=C[C@H]1c1ncc(-c2ccc(-c3ccc(-c4c[nH]c([C@@H]5CCCN5C(=O)[C@@H](NC(=O)OC(C)(C)C)C(C)(C)C)n4)cc3)cc2)[nH]1)C(C)(C)C [6bb] | > 50 nM |
| COC(=O)N[C@H](C(=O)N1CCC[C@H]1c1nc(-c2ccc(-c3ccc(-c4c[nH]c([C@@H]5C[C@@H](Oc6nc7ccccc7nc6-c6cccs6)CN5C(=O)[C@@H](NC(=O)OC)C(C)C)n4)cc3)cc2)c[nH]1)C(C)C [6w] | > 50 nM |
| COC(=O)N[C@H](C(=O)N1CC=C[C@H]1c1ncc(-c2cccc3c(-c4ccc(-c5cnc([C@@H]6CCCN6C(=O)[C@@H](NC(=O)OC)C(C)C)[nH]5)cc4)cccc23)[nH]1)C(C)C [6eg] | 0.001 to 0.999 nM |
| COC(=O)N[C@H](C(=O)N1CC=C[C@H]1c1ncc(-c2ccc(-c3ccc(-c4cnc([C@@H]5CN(S(C)(=O)=O)CN5C(=O)[C@@H](NC(=O)OC)C(C)C)[nH]4)cc3)cc2)[nH]1)C(C)C [6cz] | 0.001 to 0.999 nM |

| SMILES | EC50 |
| --- | --- |
| COC(=O)N[C@@H](C(=O)N1CC=C[C@H]1c1nc2ccc(-c3csc4c(-c5cnc([C@@H]6CCCN6C(=O)[C@H](NC(=O)OC)c6ccccc6)[nH]5)csc34)cc2[nH]1)c1ccccc1 [6gk] | 0.001 to 0.999 nM |
| CNC(=O)N[C@H](C(=O)N1CC=C[C@H]1c1ncc(-c2ccc(-c3ccc(-c4cnc([C@@H]5CCCN5C(=O)[C@@H](NC(=O)OC)C(C)C)[nH]4)cc3)cc2)[nH]1)C(C)C [6cj] | 0.001 to 0.999 nM |
| COC(=O)N[C@H](C(=O)N1CCC[C@H]1c1nc(-c2csc3c(-c4ccc(-c5cnc([C@@H]6C=CCN6C(=O)[C@H](NC(=O)OC)c6ccccc6)[nH]5)cc4)csc23)c[nH]1)C(C)C [6fk] | 0.001 to 0.999 nM |
| COC(=O)N[C@H](C(=O)N1CC=C[C@H]1c1nc(-c2ccc(-c3ccc(-c4c[nH]c([C@@H]5CCCN5C(=O)C5(NC(=O)OC)CCCCC5)n4)cc3)cc2)c[nH]1)C(C)C [6bj] | 0.001 to 0.999 nM |
| COC(=O)N[C@H](C(=O)N1CC=C[C@H]1c1ncc(-c2ccc(-c3ccc(-c4cnc([C@@H]5CN(C(=O)OC(C)(C)C)CN5C(=O)[C@@H](NC(=O)OC)C(C)C)[nH]4)cc3)cc2)[nH]1)C(C)C [6cw] | 0.001 to 0.999 nM |
| COC(=O)N[C@H](C(=O)N1CCC[C@H]1c1ncc(-c2ccc(-c3ccc(-c4cnc([C@@H]5C=CCN5C(=O)[C@@H](NC(=O)OC)C5CCCC5)[nH]4)cc3)cc2)[nH]1)C(C)C [6dh] | 0.001 to 0.999 nM |
| CNC(=O)N[C@H](C(=O)N1CC=C[C@H]1c1ncc(-c2ccc(-c3ccc(-c4cnc([C@@H]5CCCN5C(=O)[C@@H](NC(=O)NC)C(C)C)[nH]4)cc3)cc2)[nH]1)C(C)C [6ch] | 0.001 to 0.999 nM |
| COC(=O)N[C@H](C(=O)N1CC=C[C@H]1c1nc(-c2ccc(-c3ccc(-c4cnc([C@@H]5C=CCN5C(=O)[C@@H](NC(=O)OC)C(C)C)[nH]4)cc3)cc2)c[nH]1)C(C)C [6bd] | 0.001 to 0.999 nM |
| COC(=O)N[C@H](C(=O)N1CC=C[C@H]1c1nc2ccc(-c3cc4sc(-c5cnc([C@@H]6CCCN6C(=O)[C@@H](NC(=O)OC)C(C)C)[nH]5)cc4s3)cc2[nH]1)C(C)C [6gh] | 0.001 to 0.999 nM |
| COC(=O)N[C@H](C(=O)N1CC=C[C@H]1c1ncc(-c2ccc(-c3csc4c(-c5c[nH]c([C@@H]6CCCN6C(=O)[C@@H](NC(=O)OC)C(C)C)n5)csc34)cc2)[nH]1)C(C)C [6fj] | 0.001 to 0.999 nM |
| COC(=O)N[C@@H](C(=O)N1CCC[C@H]1c1ncc(-c2ccc(-c3cc4sc(-c5cnc([C@@H]6CCCN6C(=O)[C@H](NC(=O)OC)c6ccccc6)[nH]5)cc4s3)cc2)[nH]1)c1ccccc1 [Ref-3, reference compound] | 0.001 to 0.999 nM |
| COC(=O)N[C@H](C(=O)N1CC=C[C@H]1c1nc2ccc(-c3csc4c(-c5cnc([C@@H]6CCCN6C(=O)[C@H](NC(=O)OC)c6ccccc6)[nH]5)csc34)cc2[nH]1)C(C)C [6gn] | 0.001 to 0.999 nM |
| COC(=O)N[C@H](C(=O)N1CCC[C@H]1c1ncc(-c2ccc(-c3cc4sc(-c5cnc([C@@H]6CN(C(=O)N7Cc8cc9c(cc8C7)OCO9)CN6C(=O)[C@@H](NC(=O)OC)C(C)C)[nH]5)cc4s3)cc2)[nH]1)C(C)C [6bv] | 0.001 to 0.999 nM |
| COC(=O)N[C@H](C(=O)N1CCCC[C@H]1c1nc(-c2ccc(-c3ccc(-c4c[nH]c([C@@H]5CCCN5C(=O)[C@@H](NC(=O)OC)C(C)C)n4)cc3)cc2)c[nH]1)C(C)C [6ab] | 0.001 to 0.999 nM |
| COC(=O)NC(C(=O)N1CC=C[C@H]1c1ncc(-c2ccc(-c3ccc(-c4cnc([C@@H]5C=CCN5C(=O)C(NC(=O)OC)c5ccccc5)[nH]4)cc3)cc2)[nH]1)c1ccccc1 (stereo partly shown) [6ca] | 0.001 to 0.999 nM |

Same assay, conditions: Hepatitis C virus, genotype 1a / genotype 6a, read-out: Inhibitory activity against various HCV-NS5A subtypes(EC50, GT-1a to GT-6a) GT-1a

| SMILES | EC50 |
| --- | --- |
| COC(=O)N[C@@H](C(=O)N1CCC[C@H]1c1ncc(-c2ccc(-c3cc4sc(-c5cnc([C@@H]6CCCN6C(=O)[C@H](NC(=O)OC)c6ccccc6)[nH]5)cc4s3)cc2)[nH]1)c1ccccc1 [Ref-3, reference compound] | 0.051 nM |

Reference: EP3153515A1, “COMPOUNDS FOR INHIBITING HEPATITIS C VIRUS, PHARMACEUTICAL COMPOSITIONS AND USES THEREOF” (priority 2014, dated 2015)
